Data taken from doi:10.1101/2023.11.15.567208 (bioRxiv, 2024).

Legend:
[1] = ref von Euler and Gaddum, 1931 (Substance P); Amara et al., 1982 (CGRPα); cited from earlier work
Text: Among the most challenging diseases to treat is chronic pain. With over 20% of the population suffering from chronic pain, we urgently need to find new analgesic targets ([Nahin et al., 2023]).

[2] = ref Hylden and Wilcox, 1981, Malick and Goldstein, 1978, cited from earlier work
Text: Alternatively, neuropeptides may have opposing effects in different parts of the circuitry meaning global loss of the gene may produce a net effect of no change in a particular behavior.

[3] = molecular target: T1, Substance P receptor (NKR1) (Mus musculus, UniProt P30548); assay: Co-culture of DRG neurons with Substance P-sniffer cells, capsaicin-evoked Substance P release; assay type: cell-based; conditions: exogenous Substance P (10 nM); co-culture with WT or DKO DRG
T1 construct: T2A self-cleaving peptide remnant (from the polycistronic P2A-TACR1-T2A cassette) (C); expressed in transfected cells; host or cells: Flp-In T-REx HEK293 (Thermo Fisher Scientific, R78007), lentiviral transduction, hygromycin selection

[4] = molecular target: T2, CGRP receptor (Calcrl and Ramp1) (Mus musculus, UniProt Q9R1W5+Q9WTJ5); assay: CGRP-sniffer HEK293 cells, calcium (GCaMP6s) dose-response; assay type: cell-based; conditions: selectivity control; HEK293 expressing Calcrl, Ramp1, GCaMP6s and Gα15
T2 construct: expressed in transfected cells; host or cells: HEK293; Calcrl/Gα15/GCaMP6s by PiggyBac transposase (puromycin), Ramp1 by pSBbi-Neo-cmv-TETo2-RAMP1 IRES-mTagBFP2-NLS (geneticin); doxycycline-induced
Text: The copyright holder for this preprint
(1 picture or pasted object on this page, not shown here)

T1 sequence (P30548 whole entry): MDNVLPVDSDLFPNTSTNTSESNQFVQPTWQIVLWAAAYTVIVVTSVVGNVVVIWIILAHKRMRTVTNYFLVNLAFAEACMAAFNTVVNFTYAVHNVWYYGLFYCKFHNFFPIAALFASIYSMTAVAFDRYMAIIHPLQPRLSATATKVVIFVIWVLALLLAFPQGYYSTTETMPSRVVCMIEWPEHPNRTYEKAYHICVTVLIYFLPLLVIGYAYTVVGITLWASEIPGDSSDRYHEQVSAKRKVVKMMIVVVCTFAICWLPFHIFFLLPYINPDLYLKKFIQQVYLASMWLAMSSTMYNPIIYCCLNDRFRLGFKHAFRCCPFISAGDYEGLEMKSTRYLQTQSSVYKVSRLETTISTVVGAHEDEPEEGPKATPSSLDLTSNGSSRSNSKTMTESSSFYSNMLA
T2 sequence (Q9R1W5 23-463): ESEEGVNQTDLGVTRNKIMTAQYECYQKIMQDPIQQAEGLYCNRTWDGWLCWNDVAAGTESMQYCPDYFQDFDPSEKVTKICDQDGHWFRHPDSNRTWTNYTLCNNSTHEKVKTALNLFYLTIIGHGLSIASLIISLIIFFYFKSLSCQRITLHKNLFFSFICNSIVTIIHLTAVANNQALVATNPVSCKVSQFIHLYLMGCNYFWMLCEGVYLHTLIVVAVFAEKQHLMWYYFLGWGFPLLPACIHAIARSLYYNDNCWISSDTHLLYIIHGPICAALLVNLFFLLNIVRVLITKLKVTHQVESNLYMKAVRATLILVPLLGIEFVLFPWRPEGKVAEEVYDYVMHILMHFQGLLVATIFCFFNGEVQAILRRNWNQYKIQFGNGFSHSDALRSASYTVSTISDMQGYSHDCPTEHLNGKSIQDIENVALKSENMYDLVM
T2 sequence (Q9WTJ5 27-148): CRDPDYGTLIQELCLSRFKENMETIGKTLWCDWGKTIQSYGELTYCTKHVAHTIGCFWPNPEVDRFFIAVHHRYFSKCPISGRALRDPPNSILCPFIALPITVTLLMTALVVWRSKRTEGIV

Substance: Substance P: 11-amino acid peptide first discovered as a tissue extract with contractile activity
- Contractile or vasodilator activity [1]: contractile activity
- Effect in the brain ([2]; in the brain): analgesic
- Effect of infusion into the spinal cord ([2]; infusion into the spinal cord): elicits pain
- Substance P-sniffer activation by exogenous peptide [3]: activates Substance P-sniffers in both conditions
- Sensitivity of CGRP-sniffer cells [4]: insensitive
